Values of other authors in patent publication US12168056B2, “Scintillator nanocrystal-containing compositions and methods for their use” (The Regents of the University of California, priority 2013, dated 2024).

Test system: human glioblastoma (GBM) cells

SMILES: COc1cccc2c1C(=O)c1c(O)c3c(c(O)c1C2=O)C[C@@](O)(C(=O)CO)C[C@@H]3O[C@H]1C[C@H](N)[C@H](O)[C@H](C)O1 [Dox, doxorubicin]
- suppression of GBM cells in culture: potently suppresses
